Assay [1] concerns the target T1, Protein kinase C iota type (Homo sapiens) (UniProt P41743).
T1 sequence (whole entry): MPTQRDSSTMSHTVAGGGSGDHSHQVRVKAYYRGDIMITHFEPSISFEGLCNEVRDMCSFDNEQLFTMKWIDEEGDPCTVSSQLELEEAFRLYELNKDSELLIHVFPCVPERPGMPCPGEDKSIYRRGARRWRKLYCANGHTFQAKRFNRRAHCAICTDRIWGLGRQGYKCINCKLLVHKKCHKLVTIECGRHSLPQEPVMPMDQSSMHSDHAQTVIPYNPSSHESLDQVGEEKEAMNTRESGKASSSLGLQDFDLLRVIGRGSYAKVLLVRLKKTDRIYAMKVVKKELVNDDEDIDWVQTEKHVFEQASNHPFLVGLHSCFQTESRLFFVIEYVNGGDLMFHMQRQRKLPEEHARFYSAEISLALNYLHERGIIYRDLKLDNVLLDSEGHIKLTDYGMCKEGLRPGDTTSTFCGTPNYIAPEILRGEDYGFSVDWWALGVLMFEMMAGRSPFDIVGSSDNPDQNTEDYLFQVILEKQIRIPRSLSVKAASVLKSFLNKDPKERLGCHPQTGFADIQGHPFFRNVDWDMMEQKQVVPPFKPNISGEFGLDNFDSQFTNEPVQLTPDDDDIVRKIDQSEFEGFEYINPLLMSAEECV
Kind of assay: Selectivity interaction (ActivX KiNativ screen (kinase selectivity in THP-1 cell lysates)) EUB0000639a PRKCI. It counts as subcellular. The following applies: lysate, at 1 µM.

Assay [2] addresses T2, Bromodomain and PHD finger-containing protein 3 (Homo sapiens) (UniProt Q9ULD4).
T2 sequence (whole entry): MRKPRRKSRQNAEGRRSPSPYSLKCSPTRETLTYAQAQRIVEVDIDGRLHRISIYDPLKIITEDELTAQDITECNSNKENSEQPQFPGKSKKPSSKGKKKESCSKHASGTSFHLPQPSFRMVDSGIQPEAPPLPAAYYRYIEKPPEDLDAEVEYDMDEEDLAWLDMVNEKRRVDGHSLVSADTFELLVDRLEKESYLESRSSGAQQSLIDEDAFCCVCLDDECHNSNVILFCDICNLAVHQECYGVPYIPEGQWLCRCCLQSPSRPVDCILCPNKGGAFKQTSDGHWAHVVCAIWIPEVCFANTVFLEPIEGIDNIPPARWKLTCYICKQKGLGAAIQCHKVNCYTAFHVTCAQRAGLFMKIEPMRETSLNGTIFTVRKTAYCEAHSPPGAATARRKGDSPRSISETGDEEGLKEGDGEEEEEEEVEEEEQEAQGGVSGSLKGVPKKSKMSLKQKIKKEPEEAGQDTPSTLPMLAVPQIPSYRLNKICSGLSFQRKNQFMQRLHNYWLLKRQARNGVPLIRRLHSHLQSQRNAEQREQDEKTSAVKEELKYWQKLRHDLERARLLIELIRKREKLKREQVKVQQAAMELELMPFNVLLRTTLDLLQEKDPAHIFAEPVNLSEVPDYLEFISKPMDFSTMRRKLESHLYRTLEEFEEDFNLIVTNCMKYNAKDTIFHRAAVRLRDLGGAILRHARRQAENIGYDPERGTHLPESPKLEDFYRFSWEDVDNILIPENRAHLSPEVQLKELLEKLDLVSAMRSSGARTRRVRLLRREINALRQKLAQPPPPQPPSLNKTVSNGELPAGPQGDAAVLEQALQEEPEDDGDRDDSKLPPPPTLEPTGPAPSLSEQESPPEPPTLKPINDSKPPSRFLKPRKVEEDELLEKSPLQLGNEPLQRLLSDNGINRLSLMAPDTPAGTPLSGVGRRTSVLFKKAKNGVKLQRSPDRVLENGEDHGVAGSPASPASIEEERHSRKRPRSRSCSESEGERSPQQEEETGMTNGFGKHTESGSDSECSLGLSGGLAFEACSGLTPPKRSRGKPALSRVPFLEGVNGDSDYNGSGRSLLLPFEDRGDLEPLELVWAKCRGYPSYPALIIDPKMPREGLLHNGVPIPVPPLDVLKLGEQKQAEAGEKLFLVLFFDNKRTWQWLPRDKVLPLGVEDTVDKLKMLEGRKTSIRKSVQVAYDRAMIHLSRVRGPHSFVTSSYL
Briefly: Selectivity interaction (PWWP, WD40, and Tudor domain panel (DSLS measurements, literature)) EUB0000270b BRPF3.

Assay [3] has as its target Serine/threonine-protein kinase mTOR (Homo sapiens, UniProt P42345). The following applies: at 10 µM.

In the case of `CC[C@@H]1[C@H](F)C(=O)N[C@@H]1COc1nccc2cc(C(N)=O)c(OC)cc12` [ZIMLOVISERTIB], the % of inhibition in assay [1] is 2.2%.
For the compound `Cc1cc(CN)cc(C)c1-c1ncn(C)c1-c1cncn1C`, the dTagg in assay [2] was found to be 0.3 K.
Compound `CCC(=O)N1CCN(c2ccc(-n3c(=O)ccc4cnc5ccc(-c6cnc7ccccc7c6)cc5c43)cc2C(F)(F)F)CC1` registered a % of control in assay [3] of 0%.

The values are drawn from ChEMBL document CHEMBL5465560, “Selectivity Literature for EUbOPEN Chemogenomic Library” (2024).
